Patent publication US20260091015A1, “TREATING IRON DEFICIENCY WITH FERRIC CARBOXYMALTOSE” (PHARMACOSMOS HOLDING A/S, priority 2018, published 2026)

Tests used:
[1] = tested on: ionized calcium; assay: Ionized calcium, ion-selective electrode, trials IDA-04/IDA-05; assay type: in vivo, human; settings: IDA-04 and IDA-05 combined
Source text: The term “serum ionized calcium” as used herein refers to the level of calcium ions (Ca^2+) in blood serum as measured using the IL GEM Premier 3500 PAK cartridge. The central component is the sensor card, which provides a low volume, gas tight chamber in which the blood sample is presented to the sensors. The pH and electrolyte sensors are all based on the principle of ion-selective electrodes; that is, an electrical potential can be established across a membrane which is selectively permeable to a specific ion. The pH and electrolyte sensors are polyvinyl chloride (PVC) based ion selective electrodes, consisting of an internal Ag/AgCl reference electrode and internal salt layer. The potentials are measured against the card reference electrode. […]
The following safety laboratory assessments were analysed: • S-phosphate: inorganic phosphorous forms an ammonium phosphomolybdate complex having the formula (NH4)3[PO4](MoO3)12 with ammonium molybdate in the presence of sulfuric acid. The complex was determined photometrically in the ultraviolet region (340 nm) of the spectrum using the Roche Modular and Cobas Analyzer. • iFGF23 and cFGF23: the human intact FGF23 was measured by the 2nd generation Elisa kit manufactured by Immonotropics, Inc, San Clemente, CA. […] The human C-terminal FGF23 was measured by the Elisa kit manufactured by Immonotropics, Inc, San Clemente, CA. […]

[2] = tested on: biochemical bone/muscle markers; assay: Biochemical bone/muscle markers (PINP, CTx, bone specific and total alkaline phosphatase), trials IDA-04/IDA-05; assay type: in vivo, human
Source text: The term “serum Bone Specific Alkaline Phosphatase” as used herein refers to the level of Bone specific Alkaline Phosphatase in blood serum as measured using the Beckman-Coulter Ostase assay which is a one-step immunoenzymatic chemiluminescence assay using a mouse monoclonal antibody specific to Bone Specific Alkaline Phosphatase (BAP).
The term “serum Alkaline Phosphatase” as used herein refers to the level of Alkaline Phosphatase in blood serum as measured enzymatically using a Roche Modular Analyzer. In the presence of magnesium and zinc ions, p-nitrophenyl phosphate is cleaved by phosphatase into phosphate and p-nitrophenol. The p-nitrophenol released is proportional to the Alkaline Phosphatase activity and is measured photometrically.
The term “serum N-terminal Propeptide of Type I Collagen (PINP)” as used herein refers to the level of PINP in blood serum as measured using a sandwich principle, electrochemiluminescence immunoassay (ECLIA) on a Cobas e601 Analyzer. During the first incubation, PINP in the sample and a biotinylated monoclonal PINP-specific antibody are incubated together. During the second incubation, streptavidin-coated labelled microparticles and a monoclonal PINP-specific antibody labelled with ruthenium complex (Trs (2,2-bipyridyl)ruthenium (II)-complex (Ru(bpy)23+)) are added to form a sandwich complex, which binds to the solid phase via interaction of biotin and streptavidin. The reaction mixture is aspirated into the measuring cell where the microparticles are magnetically captured onto the surface of the electrode. A voltage is applied to the electrode, which induces chemiluminescent emission, which is measured by a photomultiplier. Results are determined via a calibration curve, which is instrument-specifically generated by a 2-point calibration and a master curve provided via the reagent barcode.
The term “serum Carboxy-terminal Collagen Crosslinks (CTx)” as used herein refers to the level of CTx in blood serum as measured using a sandwich principle, electrochemiluminescence immunoassay (ECLIA) on a Cobas e601 Analyzer. During the first incubation, 50 μL of sample and biotinylated monoclonal anti-beta-CrossLaps antibodies are incubated together. During the second incubation, streptavidin-coated labelled microparticles and a monoclonal P-beta-CrossLaps-specific antibody labelled with ruthenium complex are added to form a sandwich complex, which binds to the solid phase via interaction of biotin and streptavidin. The reaction mixture is aspirated into the measuring cell where the microparticles are magnetically captured onto the surface of the electrode. Unbound substances are then removed with ProCell. A voltage is applied to the electrode, which induces chemiluminescent emission, which is measured by a photomultiplier. Results are determined via a calibration curve, which is instrument-specifically generated by a 2-point calibration and a master curve provided via the reagent barcode.
The trial was a randomized, open-label, comparative trial. Subjects with Iron Deficiency Anaemia (IDA) were randomized 1:1 to one treatment course of one of the following treatments: • Group A: iron isomaltoside 1000 (Monofer®, Pharmacosmos, Holbok, Denmark, termed iron isomaltoside in the following), 1000 mg at baseline • Group B: ferric carboxymaltose (Ferinject®/Injectafer®, Vifor Inc, Switzerland), 750 mg at baseline and day 7, cumulative dose: 1500 mg […]

ferric carboxymaltose [FCM]
ionized calcium [1]: decrease | Alkaline Phosphatase ([2]; compared to IMM): statistically significant increase | Bone Specific Alkaline Phosphatase ([2]; compared to IMM): statistically significant increase | CTx values ([2]; compared to IMM): statistically significant lower | N-terminal PINP values ([2]; compared to IMM): statistically significant lower | bone turnover ([2]; treatment according to current practice): increased
